Assay results reported in US20070149465A1, “COMPOSITIONS AND METHODS FOR PREVENTION AND TREATMENT OF CACHEXIA” (priority 2005, published 2007).
In brackets after ≈: the same amount, converted by molar mass.

How the values were obtained:
[1] = Aqueous solubility of roxithromycin (pH, buffer, ethanol); format: physicochemical; conditions: 25 °C, thermodynamic from solid
Description: The solutions were syringe-filtered and analyzed by HPLC for [roxithromycin]. Roxithromycin Potency was assayed by a reverse-phase HPLC method that meets the requirements of the European Pharmacopeia (EP) Monograph for roxithromycin. Solution pH values were determined per USP <791> and solution osmolality values were determined per USP <785>. Aqueous solubility limits were determined for roxithromycin as a function of buffer type (phosphate versus citrate), buffer concentration, pH, and added co-solvent (ethanol).

Saline-inoculated rats = assay: Rat AH130 experiments, saline-inoculated control rats given drug; format: in vivo, female Wistar rats; conditions: for Carcass Weights Mean / Gastrocnemius Weights Mean / Heart Weights Mean: Saline, Day 5, normalized to 100 g Day 5 Total Body Weight
Description: Following the method of Busquets et al (Busquets S, et al: Cancer Res 64:6725-31, 2004), female Wistar rats were inoculated (Day 0) intra-peritoneally (i.p.) with 2×10^7 cells/animal of Yoshida AH-130 ascites hepatoma (AH) cells. Control animals were inoculated with an equivalent amount of sterile saline solution. […] The animals were sacrificed on Day 5. Upon sacrifice, wet weights of heart and gastrocnemius muscle were determined. Carcass (after gastrocnemius, heart, and ascites removal) weight was also determined upon sacrifice.
Treatment Group=Inoculation Type/Vehicle, or Treatment Group=Inoculation Type/F(x)R(y) where, Inoculation Type is either AH or Saline, F is formoterol fumarate, R is roxithromycin, and the parenthetical values are formoterol fumarate and roxithromycin doses (i.p. in mg/kg).

[2] = Exp 2 Group 9, F 0, R 5 mg/kg i.p.
[3] = Exp 3 Group 15, F 0, R 40 mg/kg i.p.

- solubility at 24 h ([1]; citrate buffer, pH 4, aqueous buffer, 20 mM citrate, pH 4): 4130 µg/mL (≈ 4.93 mM)
- solubility at 24 h ([1]; citrate buffer, pH 4, aqueous buffer, 50 mM citrate, pH 4): 4610 µg/mL (≈ 5.51 mM)
- solubility at 24 h ([1]; citrate buffer, pH 4, aqueous buffer, 100 mM citrate, pH 4): 1890 µg/mL (≈ 2.26 mM)
- solubility at 24 h ([1]; citrate buffer, pH 4, aqueous buffer, 200 mM citrate, pH 4): 2740 µg/mL (≈ 3.27 mM)
- solubility at 24 h ([1]; citrate buffer, pH 5, aqueous buffer, 20 mM citrate, pH 5): 3540 µg/mL (≈ 4.23 mM)
- solubility at 24 h ([1]; citrate buffer, pH 5, aqueous buffer, 50 mM citrate, pH 5): 3570 µg/mL (≈ 4.26 mM)
- solubility at 24 h ([1]; citrate buffer, pH 5, aqueous buffer, 100 mM citrate, pH 5): 2770 µg/mL (≈ 3.31 mM)
- solubility at 24 h ([1]; citrate buffer, pH 5, aqueous buffer, 200 mM citrate, pH 5): 1900 µg/mL (≈ 2.27 mM)
- solubility at 24 h ([1]; citrate buffer, pH 6, aqueous buffer, 20 mM citrate, pH 6): 2450 µg/mL (≈ 2.93 mM)
- solubility at 24 h ([1]; citrate buffer, pH 6, aqueous buffer, 50 mM citrate, pH 6): 2760 µg/mL (≈ 3.3 mM)
- solubility at 24 h ([1]; citrate buffer, pH 6, aqueous buffer, 100 mM citrate, pH 6): 2300 µg/mL (≈ 2.75 mM)
- solubility at 24 h ([1]; citrate buffer, pH 6, aqueous buffer, 200 mM citrate, pH 6): 1720 µg/mL (≈ 2.05 mM)
- solubility at 24 h ([1]; citrate buffer, pH 7, aqueous buffer, 20 mM citrate, pH 7): 500 µg/mL (≈ 0.597 mM)
- solubility at 24 h ([1]; citrate buffer, pH 7, aqueous buffer, 50 mM citrate, pH 7): 980 µg/mL (≈ 1.17 mM)
- solubility at 24 h ([1]; citrate buffer, pH 7, aqueous buffer, 100 mM citrate, pH 7): 1230 µg/mL (≈ 1.47 mM)
- solubility at 24 h ([1]; citrate buffer, pH 7, aqueous buffer, 200 mM citrate, pH 7): 1250 µg/mL (≈ 1.49 mM)
- solubility at 24 h ([1]; phosphate buffer with ethanol co-solvent, pH 5, aqueous with cosolvent or surfactant or cyclodextrin, pH 5, 10 mM phosphate, 5% ethanol): 3500 µg/mL (≈ 4.18 mM)
- solubility at 24 h ([1]; phosphate buffer with ethanol co-solvent, pH 5, aqueous with cosolvent or surfactant or cyclodextrin, pH 5, 10 mM phosphate, 10% ethanol): 3800 µg/mL (≈ 4.54 mM)
- solubility at 24 h ([1]; phosphate buffer with ethanol co-solvent, pH 5, aqueous with cosolvent or surfactant or cyclodextrin, pH 5, 20 mM phosphate, 5% ethanol): 5500 µg/mL (≈ 6.57 mM)
- solubility at 24 h ([1]; phosphate buffer with ethanol co-solvent, pH 5, aqueous with cosolvent or surfactant or cyclodextrin, pH 5, 20 mM phosphate, 10% ethanol): 6000 µg/mL (≈ 7.17 mM)
- solubility at 24 h ([1]; phosphate buffer with ethanol co-solvent, pH 5, aqueous with cosolvent or surfactant or cyclodextrin, pH 5, 50 mM phosphate, 5% ethanol): 8300 µg/mL (≈ 9.92 mM)
- solubility at 24 h ([1]; phosphate buffer with ethanol co-solvent, pH 5, aqueous with cosolvent or surfactant or cyclodextrin, pH 5, 50 mM phosphate, 10% ethanol): 9200 µg/mL (≈ 11 mM)
- solubility at 24 h ([1]; phosphate buffer with ethanol co-solvent, pH 6, aqueous with cosolvent or surfactant or cyclodextrin, pH 6, 10 mM phosphate, 5% ethanol): 4100 µg/mL (≈ 4.9 mM)
- solubility at 24 h ([1]; phosphate buffer with ethanol co-solvent, pH 6, aqueous with cosolvent or surfactant or cyclodextrin, pH 6, 10 mM phosphate, 10% ethanol): 3900 µg/mL (≈ 4.66 mM)
- solubility at 24 h ([1]; phosphate buffer with ethanol co-solvent, pH 6, aqueous with cosolvent or surfactant or cyclodextrin, pH 6, 20 mM phosphate, 5% ethanol): 4600 µg/mL (≈ 5.5 mM)
- solubility at 24 h ([1]; phosphate buffer with ethanol co-solvent, pH 6, aqueous with cosolvent or surfactant or cyclodextrin, pH 6, 20 mM phosphate, 10% ethanol): 5000 µg/mL (≈ 5.97 mM)
- solubility at 24 h ([1]; phosphate buffer with ethanol co-solvent, pH 6, aqueous with cosolvent or surfactant or cyclodextrin, pH 6, 50 mM phosphate, 5% ethanol): 8100 µg/mL (≈ 9.68 mM)
- solubility at 24 h ([1]; phosphate buffer with ethanol co-solvent, pH 6, aqueous with cosolvent or surfactant or cyclodextrin, pH 6, 50 mM phosphate, 10% ethanol): 9300 µg/mL (≈ 11.1 mM)
- solubility at 24 h ([1]; phosphate buffer with ethanol co-solvent, pH 7, aqueous with cosolvent or surfactant or cyclodextrin, pH 7, 10 mM phosphate, 5% ethanol): 1800 µg/mL (≈ 2.15 mM)
- solubility at 24 h ([1]; phosphate buffer with ethanol co-solvent, pH 7, aqueous with cosolvent or surfactant or cyclodextrin, pH 7, 10 mM phosphate, 10% ethanol): 1700 µg/mL (≈ 2.03 mM)
- solubility at 24 h ([1]; phosphate buffer with ethanol co-solvent, pH 7, aqueous with cosolvent or surfactant or cyclodextrin, pH 7, 20 mM phosphate, 5% ethanol): 1700 µg/mL (≈ 2.03 mM)
- solubility at 24 h ([1]; phosphate buffer with ethanol co-solvent, pH 7, aqueous with cosolvent or surfactant or cyclodextrin, pH 7, 20 mM phosphate, 10% ethanol): 2100 µg/mL (≈ 2.51 mM)
- solubility at 24 h ([1]; phosphate buffer with ethanol co-solvent, pH 7, aqueous with cosolvent or surfactant or cyclodextrin, pH 7, 50 mM phosphate, 5% ethanol): 2300 µg/mL (≈ 2.75 mM)
- solubility at 24 h ([1]; phosphate buffer with ethanol co-solvent, pH 7, aqueous with cosolvent or surfactant or cyclodextrin, pH 7, 50 mM phosphate, 10% ethanol): 3100 µg/mL (≈ 3.7 mM)
- solubility at 24 h ([1]; phosphate buffer, pH 5, aqueous buffer, pH 5, 10 mM phosphate, 0% ethanol): 3200 µg/mL (≈ 3.82 mM)
- solubility at 24 h ([1]; phosphate buffer, pH 5, aqueous buffer, pH 5, 20 mM phosphate, 0% ethanol): 5200 µg/mL (≈ 6.21 mM)
- solubility at 24 h ([1]; phosphate buffer, pH 5, aqueous buffer, pH 5, 50 mM phosphate, 0% ethanol): 7200 µg/mL (≈ 8.6 mM)
- solubility at 24 h ([1]; phosphate buffer, pH 6, aqueous buffer, pH 6, 10 mM phosphate, 0% ethanol): 2800 µg/mL (≈ 3.35 mM)
- solubility at 24 h ([1]; phosphate buffer, pH 6, aqueous buffer, pH 6, 20 mM phosphate, 0% ethanol): 4200 µg/mL (≈ 5.02 mM)
- solubility at 24 h ([1]; phosphate buffer, pH 6, aqueous buffer, pH 6, 50 mM phosphate, 0% ethanol): 6700 µg/mL (≈ 8 mM)
- solubility at 24 h ([1]; phosphate buffer, pH 7, aqueous buffer, pH 7, 10 mM phosphate, 0% ethanol): 1400 µg/mL (≈ 1.67 mM)
- solubility at 24 h ([1]; phosphate buffer, pH 7, aqueous buffer, pH 7, 20 mM phosphate, 0% ethanol): 1300 µg/mL (≈ 1.55 mM)
- solubility at 24 h ([1]; phosphate buffer, pH 7, aqueous buffer, pH 7, 50 mM phosphate, 0% ethanol): 2000 µg/mL (≈ 2.39 mM)
SMILES: CC[C@H]1OC(=O)[C@H](C)[C@@H](O[C@H]2C[C@@](C)(OC)[C@@H](O)[C@H](C)O2)[C@H](C)[C@@H](O[C@@H]2O[C@H](C)C[C@H](N(C)C)[C@H]2O)[C@](C)(O)C[C@@H](C)/C(=N\OCOCCOC)[C@H](C)[C@@H](O)[C@]1(C)O [roxithromycin]
- Carcass Weights Mean (Saline-inoculated rats; [2]): 97.6 g
- Gastrocnemius Weights Mean (Saline-inoculated rats; [2]): 0.575 g
- Heart Weights Mean (Saline-inoculated rats; [2]): 0.390 g
- Carcass Weights Mean (Saline-inoculated rats; [3]): 96.5 g
- Gastrocnemius Weights Mean (Saline-inoculated rats; [3]): 0.529 g
- Heart Weights Mean (Saline-inoculated rats; [3]): 0.400 g
- gastrocnemius muscle weights compared with Saline/vehicle group (Saline-inoculated rats; Experiment 2, Saline/F(0)R(5) group): approximately the same
- gastrocnemius muscle weights compared with Saline/vehicle control group (Saline-inoculated rats; Experiment 3, Saline/F(0)R(40) group): not different
